In patent publication US20180188195A1, “SYSTEMS AND METHODS FOR MULTIPLEXED HEMOSTASIS TEST PANELS” (T2 Biosystems, Inc., priority 2015, published 2018):

Tests used:
platelet aggregation = assay: Platelet aggregation by whole blood aggregometry (WBA) or light transmission aggregometry (LTA); format: cell-based, human; conditions: titration of CCD
citrated plasma = assay: T2MR PT clotting time in samples from donors on Coumadin therapy; format: in vivo, human
Method: All samples were sourced from the coagulation laboratory at a local hospital. Lab protocol was to collect discarded citrated blood samples (venous draw, 1 mL minimum) from patients on Coumadin therapy with both normal and abnormal PT values. Citrated blood samples were stored at RT and within 4-5 hours of the draw time samples were spun down at 1500×g for 15 min to prepare plasma. Plasma samples were stored frozen at −70° C.
For citrated plasma, a tissue factor reagent was prepared by reconstituting the lyophilized Dade® Innovin® (tissue factor) reagent. Citrated plasma (13 μL) was mixed with 27 μL of tissue factor reagent. All reagents and disposables were adequately pre-heated. T2 values were collected with a 1 second dwell time and used to collect the T2 values as a function of time. The T2 vs. time data were collected for 120 successive measurements and fit with a five-parameter logistic fit to calculate the EC50, from which the clotting time was derived. A method comparison against the Stago ST4 system and a precision study was completed with 22 samples from normal donors not on anti-coagulant medications and 50 samples from donors on Coumadin. […] INR (international normalized ratio, a normalized PT value) values were calculated from a pool of normal healthy donors. […] This corresponds to a clotting time value that is prolonged compared to standard therapeutic ranges.

citrated whole blood [1] = assay: T2In T2MR clotting time, intrinsic pathway activator (ellagic acid); format: cell-based, human
Text: In another embodiment a coagulopathy panel is used with an intrinsic activator such as ellagic acid. The common range of clotting time is often between 100 and 120 seconds for normal blood. However, it can be 22-30 seconds, 30-44 seconds, 44-60 seconds, 60-80 seconds, 80-100 seconds, up to 2 times to 4 times the range of normal T2MR clotting times for the extrinsic activator. The abnormal clotting time ranges are above or below the normal range. The total range easily measured is 8-300 seconds though a measurement up to or beyond 1000 seconds could be performed with modified acquisition. If aprotinin is added in addition to intrinsic activator, clotting times can often be from 110.9-151.0 seconds in normal blood.
The general intrinsic activator protocol is as follows (T2In panel): an intrinsic activator solution was prepared by mixing tissue factor reagent with CaCl2. To 36.7 μL of citrated whole blood (warmed to approximately 37° C. for 3 minutes and mixed) was added 5 μL of the intrinsic activator solution (also been warmed to approximately 37° C. for one minute). The resulting solution was mixed and subjected to T2 measurements for 50 minutes. For a given sample, a clotting time measurement was typically obtained within 5 minutes. Some examples of activators are tissue factor with phospholipids and ellagic acid with phospholipid. The reagents were placed in a tube that was subsequently placed in the magnetic field. Citrated whole blood was added and mixed. The blood was diluted 50%. The T2MR of the sample was measured for 30 minutes.
The T2Ex or the T2In protocols were also used with the addition of aprotinin (T2Ex-A and T2In-A) respectively. For the intrinsic pathway measurement (T2In), intrinsic activator solution was prepared by mixing ellagic acid stock and CaCl2. For the intrinsic pathway measurement that includes aprotinin (T2In-A), add 41.7 μL of a 1 mg/mL stock of aprotinin to 1 mL intrinsic activator solution. 36.7 μL citrated whole blood that had been warmed to approximately 37° C. for three minutes was added and mixed. […] The sample was mixed and read in the T2reader. […]

plasma [2] = assay: STAGO plasma prothrombin time (PT); format: biochemical, human; conditions: rivaroxaban spiked samples, three donors
Method: Samples from three donors were provided. Rivaroxaban spiked citrated whole blood samples were used to generate a range of clotting time measurements. An extrinsic pathway activator, such as tissue factor, was added. The T2MR clotting time (CT) range used was 32-259 seconds, and the STAGO plasma prothrombin time (PT) range was 11-47 seconds. Five replicate T2MR measurements were taken for each clotting time.

plasma [3] = assay: STAGO aPTT; format: biochemical, human; conditions: rivaroxaban spiked samples, six donors
Method: Citrated whole blood samples from six donors were provided and spiked with rivaroxaban to generate a range of clotting times. An activator of the intrinsic coagulation pathway, (e.g. ellagic acid), was added. T2MR clotting time range was between 73-202 seconds, and the STAGO aPTT range was between 29-86 seconds. Five replicate T2MR measurements were taken for each clotting time. The specification desired was between 0.7-5% CV with 100-200 seconds of clotting time and a detection range of 60-450 seconds.

citrated whole blood [4] = assay: T2Ex T2MR clotting time, extrinsic pathway activator (tissue factor); format: cell-based, human
Text: In one embodiment a panel is used with an extrinsic activator such as tissue factor. The clotting time T2MR measurement for normal blood can be 30-40 seconds. It can also be 8-12 seconds, 10-20 seconds, 10-40 seconds, 30-40 seconds, 30-50 seconds, 40-60 seconds, 50-60 seconds or 20-60 seconds. The international normalized ratio for normal blood can then be 0.8-1.2, or 0.87-1.13. The abnormal range of T2MR measurement of clotting time is above or below the normal range. The total range easily measured is 8-300 seconds though a measurement up to or beyond 1000 seconds could be performed with modified acquisition. If aprotinin is added in addition to tissue factor, in normal blood the clotting time is often between 27.9 and 41.6 seconds.
The general extrinsic activator protocol was as follows (T2Ex panel): an extrinsic activator solution was prepared by mixing tissue factor reagent with CaCl2. […]
The T2Ex or the T2In protocols were also used with the addition of aprotinin (T2Ex-A and T2In-A) respectively. […] The sample was mixed and read in the T2reader. […]
Rivaroxaban was spiked into citrated blood from normal donors at increasing levels. Aliquots of spiked blood were activated with tissue factor activator solution and clot times determined by T2MR. […]

citrated whole blood [5] = assay: T2In platelet activity and fibrinolysis measurement with tPA or aprotinin; format: cell-based, human; conditions: ellagic acid with CaCl2; tPA 0, 2 or 4 nM or aprotinin control; 65 min
Method: The T2Ex or the T2In protocols were also used with the addition of aprotinin (T2Ex-A and T2In-A) respectively. For the intrinsic pathway measurement (T2In), intrinsic activator solution was prepared by mixing ellagic acid stock and CaCl2. For the intrinsic pathway measurement that includes aprotinin (T2In-A), add 41.7 μL of a 1 mg/mL stock of aprotinin to 1 mL intrinsic activator solution. 36.7 μL citrated whole blood that had been warmed to approximately 37° C. for three minutes was added and mixed. 5 μL of intrinsic activator solution with aprotinin that had been warmed to approximately 37° C. for one minute was added. The sample was mixed and read in the T2reader. The clotting time measurement was obtained after 5 minutes and then the platelet activity and fibrinolysis measurements were obtained over the following 60 minutes. In a separate assay the effects of the amounts of activator were tested.
Platelet activity and fibrinolysis measurements for the 3 donor samples in the T2In assay are shown in FIG. 15a-15b. tPA levels of 0 nM, 2 nM or 4 nM were added to citrated whole blood. Blood samples (36.7 μL) were activated by addition of 5 μL ellagic acid solution with CaCl2. T2MR data was collected for 65 min. The addition of tPA cleaves the fibrin mesh of the clot and results in clot dissolution over time. This is detected by T2MR by the change in T2 value of the serum peak (third phase). […]

[6] = system: reconstituted blood samples; assay: T2MR % deltaT2 fibrinogen measurement, reconstituted blood activated with ellagic acid; format: cell-based, human
Text: The T2MR based hemostasis assays described herein can be used to discriminate normal from abnormal patient samples for fibrinogen measurements using either an extrinsic or intrinsic pathway activation. […] Citrated whole blood from normal donors was centrifuged and […] removed. Packed red blood cells were washed with fibrinogen depleted plasma. Fibrinogen depleted plasma was spiked with known amounts of fibrinogen; these spiked plasmas were used to reconstitute washed red blood cells to produce blood samples with varying fibrinogen levels. Blood samples were activated with ellagic acid activator solution and clot time and % deltaT2 were measured. Fibrinogen levels in each sample were determined by the Clauss method. […] Low fibrinogen (120 mg/dL) gave an average % deltaT2 of 4, normal level fibrinogen (343 mg/dL) gave an average % deltaT2 of 8.3 and high fibrinogen (583 mg/dL) gave an average % deltaT2 of 10.7.

## C=C1[C@@H](C)[C@H]2[C@H](Cc3ccccc3)NC(=O)[C@]23[C@H](OC(C)=O)/C=C/[C@@](C)(O)C(=O)[C@@H](C)C/C=C/[C@H]3[C@@H]1O [CCD, cytochalasin D]
Platelet aggregation
  effect on platelet aggregation: no reproducible effect

## CC(=O)CC(c1ccccc1)c1c(O)c2ccccc2oc1=O (centres unmarked) [Coumadin, warfarin]
Citrated plasma; citrated plasma, citrated blood and fresh whole blood
  clotting times versus normal donors not on therapy: prolonged clotting times
Citrated plasma; patient on Coumadin, hypocoagulable state
  INR: 5.3
Citrated plasma; patient on Coumadin, hypocoagulable state, citrated plasma, tissue factor reagent
  T2MR clotting time: 51.3 s
Citrated plasma; patient undergoing Coumadin therapy but hypercoagulable
  INR: 0.8
Citrated plasma; patient undergoing Coumadin therapy but hypercoagulable, citrated plasma
  T2MR clotting time: 8.4 s

## O=C(NC[C@H]1CN(c2ccc(N3CCOCC3=O)cc2)C(=O)O1)c1ccc(Cl)s1 [rivaroxaban]
Citrated whole blood [1]; rivaroxaban spiked citrated whole blood, six donors
  T2MR clotting time range: 73 to 202 s
Plasma [2]
  STAGO plasma prothrombin time (PT) range: 11 to 47 s
Plasma [3]
  STAGO aPTT range: 29 to 86 s
Citrated whole blood [4]; 800 ng/mL spiked into citrated blood from normal donors, tissue factor activator solution
  extension of clot times: approximately 80%
Citrated whole blood [4]; rivaroxaban spiked citrated whole blood, three donors, range over spiked samples (Example 12)
  T2MR clotting time (CT) range: 32 to 259 s

## aprotinin
Citrated whole blood [5]
  change in T2 value of the serum peak (third phase): no detected change
Citrated whole blood [1]; T2In, 3 donors, different tPA concentrations, with or without aprotinin
  clotting time curves (% deltaT2): appear to overlay
Citrated whole blood [1]; aprotinin added in addition to intrinsic activator, normal blood
  clotting times: 110.9 to 151.0 s

## fibrinogen
[6]; high fibrinogen 583 mg/dL
  average % deltaT2: 10.7
[6]; low fibrinogen 120 mg/dL
  average % deltaT2: 4
[6]; normal level fibrinogen 343 mg/dL
  average % deltaT2: 8.3
